Assays:
[1] = in vivo; cited from earlier work
[2] = Solubility of dopamine agonists in 10 mM citrate buffer (pH 5) at 25° C. with or without HPCD; assay type: physicochemical
Procedure: (§1) The stability and solubility of dopamine agonists, i.e., bromocriptine(BCT), apomorphine(APO), pergolide(PER), and lisuride(LIS) were tested as follows.
(§2) For the stability test, solutions each containing 100 μg/ml of the dopamine agonist in 10 mM citrate buffer(pH 5) were incubated at 25° C. for 30 days with or without added 2-hydroxypropyl-β-cyclodextrin(HPCD, average molar substitution=0.8, average molecular weight=1500; 20 wt % based on the solution).
(§3) The amounts of the dopamine agonists in sample solutions of the stability and solubility tests were determined by HPLC method with fluorescence detector.
(§4) Each data point in FIGS. 1A and 1B represents the mean of two determinations and each value in FIG. 2 is the mean±SD(standard deviation) of three determinations. […] The addition of HPCD also bring about marked increases in the solubilities of the dopamine agonists; by a factor of 19 for bromocriptine, and two for apomorphine, pergolide, and lisuride.

[3] = tested on: eye of a young maturing animal; conditions: ocular administration; cited from earlier work
[4] = tested on: form-deprivation myopia; conditions: daily intravitreal injections; young chickens; cited from earlier work
[5] = cited from earlier work; for Stability with sodium acetate: Tris buffer pH 7.4, sodium acetate added; for Stability in Tris buffer: pH 7.4
[6] = Stability of dopamine agonists in 10 mM citrate buffer (pH 5) at 25° C. with or without HPCD; assay type: physicochemical; conditions: 100 μg/ml, 10 mM citrate buffer pH 5, 25° C., 30 days, with vs without 20 wt % HPCD
Procedure: as §1, §2, §3, §4

[7] = mucoadhesive polymer, e.g., polycarbophil; cited from earlier work
[8] = in vivo; cited from earlier work; remark: listed apart in the source

2-hydroxypropyl-β-cyclodextrin
Tolerability when administered [1]: innocuous when administered

CN1CCc2cccc3c2[C@H]1Cc1ccc(O)c(O)c1-3 [apomorphine]
Increase in solubility by addition of HPCD (factor) ([2]; pH 5): two | Inhibition of axial enlargement of the eye [3]: can inhibit, and in some cases completely prevent, the axial enlargement of the eye | Effect on form-deprivation myopia (FDM) [4]: block form-deprivation myopia | Stability with mercaptoethanol ([5]; 0.01% mercaptoethanol): stability of apomorphine is improved | Stability with sodium acetate [5]: greatly enhanced | Stability in Tris buffer [5]: unstable | Stability with antioxidants ([5]; water or plasma, ascorbic acid and sodium bisulfate): can be stabilized by the addition of antioxidants

CC(C)C[C@H]1C(=O)N2CCC[C@H]2[C@]2(O)O[C@](NC(=O)[C@@H]3C=C4c5cccc6[nH]c(Br)c(c56)C[C@H]4N(C)C3)(C(C)C)C(=O)N12 [bromocriptine]
Effect of HPCD on stability [6]: significant increases in the stabilities

CCCC(=O)c1ccccc1 [butyrophenone]
Inhibition of axial enlargement of the eye [3]: can inhibit, and in some cases completely prevent, the axial enlargement of the eye

NCCc1ccc(O)c(O)c1 [dopamine]
Stability with sodium acetate [5]: greatly enhanced | Stability in Tris buffer [5]: unstable

O=C(CCCN1CCC(O)(c2ccc(Cl)cc2)CC1)c1ccc(F)cc1 [haloperidol]
Inhibition of axial enlargement of the eye [3]: can inhibit, and in some cases completely prevent, the axial enlargement of the eye

CCN(CC)C(=O)N[C@H]1C=C2c3cccc4[nH]cc(c34)C[C@H]2N(C)C1 [lisuride]
Effect of HPCD on stability [6]: does not affect the stabilities | Increase in solubility by addition of HPCD (factor) ([2]; 20 mg/ml, 10 mM citrate buffer pH 5, 25° C., 24 hours, 20 wt % HPCD vs none): two

CCCN1C[C@H](CSC)C[C@@H]2c3cccc4[nH]cc(c34)C[C@H]21 [pergolide]
Increase in solubility by addition of HPCD (factor) ([2]; pH 5): two

gentamicin
Penetration via the conjunctival-scleral pathway [7]: facilitated

poly(vinyl alcohol)
Increase in the iris-ciliary body to plasma drug concentration ratio [8]: 52 fold

— patent publication US5814638A, “Ophthalmic formulation for treating myopia comprising dopamine agonist and cyclodextrin” (LG Chemical Ltd., priority 1996, dated 1998)
